Literature values, collected in PubChem BioAssay AID1259409 (Chemical Carcinogenesis Research Information System (CCRIS), 2018).

Test system: rodent chemically induced tumor inhibition, incidence and multiplicity
Assay: CCRIS tumor inhibitor studies
Settings: Promoter: NONE USED

NC(=S)S
tumour outcome (control, treated, inhibition, significance) (Carcinogen: ETHYL CARBAMATE, 51-79-6, Dose [Inhibitor]: 0, 0.25 MG/G IN 0.005 ML OF 0.9% SALINE ADMINISTERED 30 MIN PRIOR TO CARCINOGEN DOSE (STUDY DURATION: 26 WK), Route [Inhibitor]: INTRAPERITONEAL, Species: MOUSE, Strain/Sex: STRAIN-A/FEMALE, Target Tissue: Type of Lesion: LUNG: ADENOMA, Dose [Carcinogen]: 0.5 MG/G ONCE): 100%, 100%, 0%, not calculated | tumour outcome (control, treated, inhibition, significance) (Carcinogen: ETHYL CARBAMATE, 51-79-6, Dose [Inhibitor]: 0, 0.25 MG/G IN 0.005 ML OF 0.9% SALINE FIRST DOSE ADMINISTERED 30 MIN PRIOR TO CARCINOGEN DOSE FOLLOWED BY A SECOND DOS, Route [Inhibitor]: INTRAPERITONEAL, Species: MOUSE, Strain/Sex: STRAIN-A/FEMALE, Target Tissue: Type of Lesion: LUNG: ADENOMA, Dose [Carcinogen]: 0.25 MG/G ONCE): 100%, 100%, 0%, not calculated | tumour outcome (control, treated, inhibition, significance) (Carcinogen: ETHYL CARBAMATE, 51-79-6, Dose [Inhibitor]: 0, 0.25 MG/G IN 0.005 ML OF 0.9% SALINE FIRST DOSE ADMINISTERED 30 MIN PRIOR TO CARCINOGEN DOSE FOLLOWED BY A SECOND DOS, Route [Inhibitor]: INTRAPERITONEAL, Species: MOUSE, Strain/Sex: STRAIN-A/FEMALE, Target Tissue: Type of Lesion: LUNG: ADENOMA, Dose [Carcinogen]: 0.5 MG/G ONCE): 100%, 100%, 0%, not calculated | tumour outcome (control, treated, inhibition, significance) (Carcinogen: ETHYL CARBAMATE, 51-79-6, Dose [Inhibitor]: 0, 0.5 MG/G IN 0.01 ML OF 0.9% SALINE ADMINISTERED 30 MIN PRIOR TO CARCINOGEN DOSE (STUDY DURATION: 7 MO), Route [Inhibitor]: INTRAPERITONEAL, Species: MOUSE, Strain/Sex: B6C3F1/MALE, Target Tissue: Type of Lesion: LIVER: HEPATOMA, Dose [Carcinogen]: 0.5 MG/G ONCE): 26/26 (100%), 31/31 (100%), 0%, not calculated | tumour outcome (control, treated, inhibition, significance) (Carcinogen: ETHYL CARBAMATE, 51-79-6, Dose [Inhibitor]: 0, 0.5 MG/G IN 0.01 ML OF 0.9% SALINE ADMINISTERED 30 MIN PRIOR TO CARCINOGEN DOSE (STUDY DURATION: 8 MO), Route [Inhibitor]: INTRAPERITONEAL, Species: MOUSE, Strain/Sex: B6C3F1/MALE, Target Tissue: Type of Lesion: LIVER: HEPATOMA, Dose [Carcinogen]: 0.125 MG/G ONCE): 24/24 (100%), 24/25 (96%), 4%, not calculated | tumour outcome (control, treated, inhibition, significance) (Carcinogen: ETHYL CARBAMATE, 51-79-6, Dose [Inhibitor]: 0, 0.5 MG/G IN 0.01 ML OF 0.9% SALINE ADMINISTERED 30 MIN PRIOR TO CARCINOGEN DOSE (STUDY DURATION: 8 MO), Route [Inhibitor]: INTRAPERITONEAL, Species: MOUSE, Strain/Sex: B6C3F1/MALE, Target Tissue: Type of Lesion: LIVER: HEPATOMA, Dose [Carcinogen]: 0.25 MG/G ONCE): 17/17 (100%), 28/29 (97%), 3%, not calculated | tumour outcome (control, treated, inhibition, significance) (Carcinogen: ETHYL CARBAMATE, 51-79-6, Dose [Inhibitor]: 0, 0.5 MG/G IN 0.01 ML OF 0.9% SALINE ADMINISTERED 30 MIN PRIOR TO CARCINOGEN DOSE (STUDY DURATION: 12 MO), Route [Inhibitor]: INTRAPERITONEAL, Species: MOUSE, Strain/Sex: B6C3F1/FEMALE, Target Tissue: Type of Lesion: HARDERIAN GLAND: TUMOR, Dose [Carcinogen]: 0.5 MG/G ONCE): 40%, 15%, 62%, not calculated | tumour outcome (control, treated, inhibition, significance) (Carcinogen: ETHYL CARBAMATE, 51-79-6, Dose [Inhibitor]: 0, 0.5 MG/G IN 0.01 ML OF 0.9% SALINE ADMINISTERED 30 MIN PRIOR TO CARCINOGEN DOSE (STUDY DURATION: 12 MO), Route [Inhibitor]: INTRAPERITONEAL, Species: MOUSE, Strain/Sex: B6C3F1/FEMALE, Target Tissue: Type of Lesion: LIVER: HEPATOMA, Dose [Carcinogen]: 0.5 MG/G ONCE): 68%, 19%, 72%, not calculated | tumour outcome (control, treated, inhibition, significance) (Carcinogen: ETHYL CARBAMATE, 51-79-6, Dose [Inhibitor]: 0, 0.5 MG/G IN 0.01 ML OF 0.9% SALINE ADMINISTERED 30 MIN PRIOR TO CARCINOGEN DOSE (STUDY DURATION: 12 MO), Route [Inhibitor]: INTRAPERITONEAL, Species: MOUSE, Strain/Sex: B6C3F1/FEMALE, Target Tissue: Type of Lesion: LUNG: ADENOMA, Dose [Carcinogen]: 0.5 MG/G ONCE): 48%, 12%, 75%, not calculated | tumour outcome (control, treated, inhibition, significance) (Carcinogen: VINYL CARBAMATE, 15805-73-9, Dose [Inhibitor]: 0, 0.25 MG/G IN 0.005 ML OF 0.9% SALINE ADMINISTERED 30 MIN PRIOR TO CARCINOGEN DOSE (STUDY DURATION: 26 WK), Route [Inhibitor]: INTRAPERITONEAL, Species: MOUSE, Strain/Sex: STRAIN-A/FEMALE, Target Tissue: Type of Lesion: LUNG: ADENOMA, Dose [Carcinogen]: 0.025 MG/G ONCE): 100%, 100%, 0%, not calculated | tumour outcome (control, treated, inhibition, significance) (Carcinogen: VINYL CARBAMATE, 15805-73-9, Dose [Inhibitor]: 0, 0.5 MG/G IN 0.005 ML OF 0.9% SALINE ADMINISTERED 30 MIN PRIOR TO CARCINOGEN DOSE (STUDY DURATION: 26 WK), Route [Inhibitor]: INTRAPERITONEAL, Species: MOUSE, Strain/Sex: STRAIN-A/FEMALE, Target Tissue: Type of Lesion: LUNG: ADENOMA, Dose [Carcinogen]: 0.025 MG/G ONCE): 100%, 100%, 0%, not calculated | tumour outcome (control, treated, inhibition, significance) (Carcinogen: VINYL CARBAMATE, 15805-73-9, Dose [Inhibitor]: 0, 0.5 MG/G IN 0.01 ML OF 0.9% SALINE ADMINISTERED 30 MIN PRIOR TO CARCINOGEN DOSE (STUDY DURATION: 7 MO), Route [Inhibitor]: INTRAPERITONEAL, Species: MOUSE, Strain/Sex: B6C3F1/MALE, Target Tissue: Type of Lesion: LIVER: HEPATOMA, Dose [Carcinogen]: 0.025 MG/G ONCE): 24/24 (100%), 29/29 (100%), 0%, not calculated | tumour outcome (control, treated, inhibition, significance) (Carcinogen: VINYL CARBAMATE, 15805-73-9, Dose [Inhibitor]: 0, 0.5 MG/G IN 0.01 ML OF 0.9% SALINE ADMINISTERED 30 MIN PRIOR TO CARCINOGEN DOSE (STUDY DURATION: 8 MO), Route [Inhibitor]: INTRAPERITONEAL, Species: MOUSE, Strain/Sex: B6C3F1/MALE, Target Tissue: Type of Lesion: LIVER: HEPATOMA, Dose [Carcinogen]: 0.003 MG/G ONCE): 29/29 (100%), 27/27 (100%), 0%, not calculated | tumour outcome (control, treated, inhibition, significance) (Carcinogen: VINYL CARBAMATE, 15805-73-9, Dose [Inhibitor]: 0, 0.5 MG/G IN 0.01 ML OF 0.9% SALINE ADMINISTERED 30 MIN PRIOR TO CARCINOGEN DOSE (STUDY DURATION: 8 MO), Route [Inhibitor]: INTRAPERITONEAL, Species: MOUSE, Strain/Sex: B6C3F1/MALE, Target Tissue: Type of Lesion: LIVER: HEPATOMA, Dose [Carcinogen]: 0.008 MG/G ONCE): 23/23 (100%), 27/27 (100%), 0%, not calculated | tumour outcome (control, treated, inhibition, significance) (Carcinogen: VINYL CARBAMATE, 15805-73-9, Dose [Inhibitor]: 0, 0.5 MG/G IN 0.01 ML OF 0.9% SALINE ADMINISTERED 30 MIN PRIOR TO CARCINOGEN DOSE (STUDY DURATION: 12 MO), Route [Inhibitor]: INTRAPERITONEAL, Species: MOUSE, Strain/Sex: B6C3F1/FEMALE, Target Tissue: Type of Lesion: HARDERIAN GLAND: TUMOR, Dose [Carcinogen]: 0.025 MG/G ONCE): 68%, 22%, 68%, not calculated | tumour outcome (control, treated, inhibition, significance) (Carcinogen: VINYL CARBAMATE, 15805-73-9, Dose [Inhibitor]: 0, 0.5 MG/G IN 0.01 ML OF 0.9% SALINE ADMINISTERED 30 MIN PRIOR TO CARCINOGEN DOSE (STUDY DURATION: 12 MO), Route [Inhibitor]: INTRAPERITONEAL, Species: MOUSE, Strain/Sex: B6C3F1/FEMALE, Target Tissue: Type of Lesion: LIVER: HEPATOMA, Dose [Carcinogen]: 0.025 MG/G ONCE): 96%, 30%, 69%, not calculated | tumour outcome (control, treated, inhibition, significance) (Carcinogen: VINYL CARBAMATE, 15805-73-9, Dose [Inhibitor]: 0, 0.5 MG/G IN 0.01 ML OF 0.9% SALINE ADMINISTERED 30 MIN PRIOR TO CARCINOGEN DOSE (STUDY DURATION: 12 MO), Route [Inhibitor]: INTRAPERITONEAL, Species: MOUSE, Strain/Sex: B6C3F1/FEMALE, Target Tissue: Type of Lesion: LUNG: ADENOMA, Dose [Carcinogen]: 0.025 MG/G ONCE): 54%, 9%, 83%, not calculated

Cc1ccc(Cl)c(Nc2ccccc2C(=O)O)c1Cl
tumour outcome (control, treated, inhibition, significance) (Carcinogen: 1,2-DIMETHYLHYDRAZINE DIHYDROCHLORIDE, 306-37-6, Dose [Inhibitor]: 50 MG/L TAP WATER DAILY FOR 32 WK STARTING SIMULTANEOUSLY WITH CARCINOGEN TREATMENT (STUDY DURATION: 32 WK), Route [Inhibitor]: ORAL, Species: RAT, Strain/Sex: SPRAGUE-DAWLEY/MALE, Target Tissue: Type of Lesion: LARGE INTESTINE: TUMOR, Dose [Carcinogen]: 20 MG/KG BW WEEKLY FOR 20 WK): 88%, 90%, -2%, not significant | tumour outcome (control, treated, inhibition, significance) (Carcinogen: 1,2-DIMETHYLHYDRAZINE DIHYDROCHLORIDE, 306-37-6, Dose [Inhibitor]: 50 MG/L TAP WATER DAILY FOR 32 WK STARTING SIMULTANEOUSLY WITH CARCINOGEN TREATMENT (STUDY DURATION: 32 WK), Route [Inhibitor]: ORAL, Species: RAT, Strain/Sex: SPRAGUE-DAWLEY/MALE, Target Tissue: Type of Lesion: SMALL INTESTINE: TUMOR, Dose [Carcinogen]: 20 MG/KG BW WEEKLY FOR 20 WK): 46%, 35%, 24%, not significant
